Source: patent US8859580B2 (Boehringer Ingelheim International GmbH, priority 2007, dated 2014)

target: T1, 11β-HSD1 (Homo sapiens, UniProt P28845); assay: In vitro inhibition of 11β-HSD1, HTRF detection of cortisol generated from cortisone by human liver microsomes; type: biochemical; settings: 11β-HSD IC50 (nM), 1 hour at 37° C., pH 6.0, NADPH 200 μM, cortisone 80 nM, inhibition relative to carbenoxolone signal
T1 construct: detecting cortisol generated from cortisterone by human liver microsomes; from tissue; host or cells: human liver microsomes
T1 sequence (P28845 whole entry): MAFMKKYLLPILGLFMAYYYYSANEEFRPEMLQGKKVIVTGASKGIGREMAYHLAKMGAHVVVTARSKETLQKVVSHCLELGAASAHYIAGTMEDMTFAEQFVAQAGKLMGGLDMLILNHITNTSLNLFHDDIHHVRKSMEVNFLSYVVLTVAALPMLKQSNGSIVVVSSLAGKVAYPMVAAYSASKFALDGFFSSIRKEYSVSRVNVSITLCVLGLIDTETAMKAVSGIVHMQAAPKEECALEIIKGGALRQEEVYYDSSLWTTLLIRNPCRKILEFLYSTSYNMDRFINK
Procedure: Cortisol generated in the reaction is then detected with a competitive immunoassay, involving two HTRF conjugates: cortisol linked to XL665 and anti-cortisol antibody labeled with Europium cryptate. The incubation period for detection reaction was typically 2 hours. […] The ratio of the two emission signals is then calculated (Em665*10000/Em615). […] Each assay also contained a calibration curve with cortisol to transform the fluorescent data into cortisol concentrations. Percent inhibition of each compound was determined relative to the carbenoxolone signal and IC50 curves were generated.

Going from `CC12CCN(C(=O)c3ccc4nc[nH]c4c3)C(Cc3cc4c(cc31)OCO4)C2(C)C` (stereo not shown) [Example 143, (8,9-Methylenedioxy-6,11,11-trimethyl-1,2,5,6-tetrahydro-4H-2,6-methano-benzo[d]azocin-3-yl)-(3H-benzoimidazol-5-yl)-methanone] to `Cc1cnc2cc3c(cc2n1)C[C@H]1N(C(=O)c2ccc4nc[nH]c4c2)CC[C@]3(C)C1(C)C` [Example 254, (3H-Benzoimidazol-5-yl)-[(7R,11S)-6,7,8,9,10,11-hexahydro-3,11,13,13-tetramethyl-7,11-methano-pyrazino[2,3-i][3]benzazocin-8-yl]-methanone], the IC50 rises from 123 nM to 742 nM (6-fold).

`Cn1nc(C(=O)N2CC[C@@]3(C)c4cccc(O)c4C[C@@H]2C3(C)C)c2ccccc21` [Example 194, [(2R,6S)-10-Hydroxy-6,11,11-trimethyl-1,2,5,6-tetrahydro-4H-2,6-methano-benzo[d]azocin-3-yl]-(1-methyl-1H-indazol-3-yl)-methanone] and `CC1(C)[C@H]2Cc3c(O)cccc3[C@]1(C)CCN2C(=O)c1ccc2nn[nH]c2c1` [Example 21, (3H-Benzotriazol-5-yl)-[(2R,6S)-10-hydroxy-6,11,11-trimethyl-1,2,5,6-tetrahydro-4H-2,6-methano-benzo[d]azocin-3-yl]-methanone] are within 1.5-fold of each other in IC50: 642 nM for the first, 669 nM for the second.

Compared with `CC12CCN(C(=O)c3ccc4nc[nH]c4c3)C(Cc3cc(C#N)ccc31)C2(C)C` (stereo not shown) [Example 96, 3-(1H-Benzoimidazole-5-carbonyl)-6,11,11-trimethyl-1,2,3,4,5,6-hexahydro-2,6-methano-benzo[d]azocine-9-carbonitrile], `CC(C)(C)c1nc2cc3c(cc2[nH]1)[C@]1(C)CCN(C(=O)c2ccc4nc[nH]c4c2)[C@H](C3)C1(C)C` [Example 273, (3H-Benzoimidazol-5-yl)-[(6R,10S)-2-tert-butyl-5,6,7,8,9,10-hexahydro-10,12,12-trimethyl-6,10-methano-imidazo[5,4-i][3]benzazocin-7-yl]-methanone] is 2.7-fold lower in IC50: 95 nM for the first, 35 nM for the second.

First: CC1(C)C2Cc3ccc(O)cc3C1(c1ccccc1)CCN2C(=O)c1ccc2nc[nH]c2c1 (stereo not shown) [Example 150, (3H-Benzoimidazol-5-yl)-(8-hydroxy-11,11-dimethyl-6-phenyl-1,2,5,6-tetrahydro-4H-2,6-methano-benzo[d]azocin-3-yl)-methanone]
Second: C[C@H]1[C@H]2Cc3ccc(O)cc3[C@]1(C)CCN2C(=O)c1ccc2nc[nH]c2c1 [Example 247, (3H-Benzoimidazol-5-yl)-[(2R,6R,11R)-8-hydroxy-6,11-dimethyl-1,2,5,6-tetrahydro-4H-2,6-methano-benzo[d]azocin-3-yl)-methanone]
The IC50 of the first is 2.3-fold higher: 438 nM for the first, 190 nM for the second. The second is the more potent here.

Going from `CCN(CC)C(=O)c1ccc(C(=O)N2CC[C@@]3(C)c4cccc(O)c4C[C@@H]2C3(C)C)cc1` [Example 168, N,N-Diethyl-4-[(2R,6S)-10-hydroxy-6,11,11-trimethyl-1,2,5,6-tetrahydro-4H-2,6-methano-benzo[d]azocine-3-carbonyl]-benzamide] to `CCCN(C)C(=O)c1ccc(C(=O)N2CC[C@@]3(C)c4cccc(O)c4C[C@@H]2C3(C)C)cc1` [Example 167, 4-[(2R,6S)-10-Hydroxy-6,11,11-trimethyl-1,2,5,6-tetrahydro-4H-2,6-methano-benzo[d]azocine-3-carbonyl]-N-methyl-N-propyl-benzamide], the IC50 falls from 561 nM to 291 nM (1.9-fold).

Going from `CC1(C)[C@H]2Cc3c(O)cccc3[C@]1(C)CCN2C(=O)c1ccc(CN2CC(O)C2)cc1` [Example 187, [4-(3-Hydroxy-azetidin-1-ylmethyl)-phenyl]-[(2R,6S)-10-hydroxy-6,11,11-trimethyl-1,2,5,6-tetrahydro-4H-2,6-methano-benzo[d]azocin-3-yl]-methanone] to `CC1(C)[C@H]2Cc3c(O)cccc3[C@]1(C)CCN2C(=O)c1ccc(Cn2ccnc2)cc1` [Example 123, [(2R,6S)-10-Hydroxy-6,11,11-trimethyl-1,2,5,6-tetrahydro-4H-2,6-methano-benzo[d]azocin-3-yl]-(4-imidazol-1-ylmethyl-phenyl)-methanone], the IC50 falls from 1960 nM to 297 nM (6.6-fold).

Going from `CC[C@@H]1[C@H]2Cc3ccc(O)cc3[C@]1(CC)CCN2C(=O)c1ccc2nc[nH]c2c1` (racemic) [Example 85, (3H-Benzoimidazol-5-yl)-(6,11-diethyl-8-hydroxy-1,2,5,6-tetrahydro-4H-2,6-methano-benzo[d]azocin-3-yl)-methanone] to `CC[C@H]1[C@H]2Cc3ccc(O)cc3[C@]1(CC)CCN2C(=O)c1ccc2nc[nH]c2c1` (racemic) [Example 86, (3H-Benzoimidazol-5-yl)-(6,11-diethyl-8-hydroxy-1,2,5,6-tetrahydro-4H-2,6-methano-benzo[d]azocin-3-yl)-methanone], the IC50 rises from 89 nM to 2400 nM (27-fold).

Going from `CC12CCN(C(=O)c3ccc4ncsc4c3)C(Cc3ccc(O)cc31)C2` (stereo not shown) [Example 92, benzothiazol-6-yl-(8-hydroxy-6-methyl-1,2,5,6-tetrahydro-4H-2,6-methano-benzo[d]azocin-3-yl)-methanone] to `CCCC12CCN(C(=O)c3ccc4nc[nH]c4c3)C(Cc3ccc(O)cc31)C2` (stereo not shown) [Example 88, (3H-Benzoimidazol-5-yl)-(8-hydroxy-6-propyl-1,2,5,6-tetrahydro-4H-2,6-methano-benzo[d]azocin-3-yl)-methanone], the IC50 falls from 1110 nM to 171 nM (6.5-fold).

Going from `CC1(C)[C@H]2Cc3c(O)cccc3[C@]1(C)CCN2C(=O)c1n[nH]c2c1CCCC2` [Example 219, [(2R,6S)-10-Hydroxy-6,11,11-trimethyl-1,2,5,6-tetrahydro-4H-2,6-methano-benzo[d]azocin-3-yl]-(4,5,6,7-tetrahydro-1H-indazol-3-yl)-methanone] to `Cc1cc2nc[nH]c2cc1C(=O)N1CC[C@@]2(C)c3cccc(O)c3C[C@@H]1C2(C)C` [Example 210, [(2R,6S)-10-Hydroxy-6,11,11-trimethyl-1,2,5,6-tetrahydro-4H-2,6-methano-benzo[d]azocin-3-yl]-(6-methyl-3H-benzoimidazol-5-yl)-methanone], the IC50 falls from 160 nM to 68 nM (2.4-fold). The second is the more potent here.

`C[C@@H]1[C@H]2Cc3ccc(-c4ccncc4)cc3[C@]1(C)CCN2C(=O)c1ccc2nc[nH]c2c1` [Example 251, (3H-Benzoimidazol-5-yl)-[(2R,6R,11S)-6,11-dimethyl-8-pyridin-4-yl-1,2,5,6-tetrahydro-4H-2,6-methano-benzo[d]azocin-3-yl]-methanone] and `C[C@@H]1[C@H]2Cc3ccc(-c4ccc(=O)n(C)n4)cc3[C@]1(C)CCN2C(=O)c1ccc2nc[nH]c2c1` [Example 290, 6-[(2R,6R,11S)-3-(3H-Benzoimidazole-5-carbonyl)-6,11-dimethyl-1,2,3,4,5,6-hexahydro-2,6-methano-benzo[d]azocin-8-yl]-2-methyl-2H-pyridazin-3-one] are within 1.5-fold of each other in IC50: 66 nM for the first, 72 nM for the second.

`O=C(c1ccc2nc[nH]c2c1)N1CCC2CC1Cc1ccc(O)cc12` (stereo not shown) [Example 55, (3H-Benzoimidazol-5-yl)-(8-hydroxy-1,2,5,6-tetrahydro-4H-2,6-methano-benzo[d]azocin-3-yl)-methanone] gave an IC50 of 746 nM.

same assay, conditions: 1 hour at 37° C., pH 6.0, NADPH 200 μM, cortisone 80 nM, inhibition relative to carbenoxolone signal, read-out: 11β-HSD IC50

For `CC12CCN(C(=O)c3ccc4nc[nH]c4c3)C(CCc3ccccc31)C2` (stereo not shown) [Example 98, (3H-Benzoimidazol-5-yl)-(1-methyl-11-aza-tricyclo[8.3.1.0*2,7*]tetradeca-2,4,6-trien-11-yl)-methanone], the IC50 was 125 nM.
